Measurements published in patent US4633014A, “Substituted 3-hydrazinopropionates” (priority 1983, dated 1986).

Assays:
[1] = test system: arrhythmia induced by an intravenous administration of calcium chloride; assay: Antiarrhythmic activity on a model of arrhythmia induced by intravenous calcium chloride (antagonism to calcium) in mice; type: in vivo; settings: white mice, 20-40 minutes before
Description: The specific (antiarrhythmic) effect and acute toxicity were studied.
The antiarrhythmic activity of the compounds according to the present invention was studied on a model of arrhythmia induced by an intravenous administration of calcium chloride. In experiments on white mice of both sexes with a mass of 18-25 g narcotized by urethane (1,200 mg/kg intraperitoneally) ECG in the second standard lead was recorded. A 2% solution of calcium chloride was introduced into the tail vein at a constant rate (0.01 ml for 2 sec). The dose of calcium chloride causing arrhythmia and the dose causing the heart arrest were determined. In the test groups the test compounds were administered intraperitoneally 20-40 minutes before the beginning of the experiment.

[2] = test system: white mice; assay: in vivo
Description: (§1) The study of the effect provided by the compounds according to the present invention on the cardio-vascular system was carried out in experiments on white mice. The specific (antiarrhythmic) effect and acute toxicity were studied.
(§2) The acute toxicity of the compounds according to the present invention was determined in experiments on white mice with a mass of 20-25 g. The test compounds were administered intraperitoneally in the form of aqueous solutions or suspensions in Twin-80. Observation over the test animals was effected for 10 days.

[3] = in vivo; settings: mouse, in vivo, ip
Description: as §1, §2

SMILES	Dose of calcium chloride causing arrythmia in animals under experiment ([1]; intraperitoneal dose 5 mg/kg)	Dose of calcium chloride causing death in animals under experiment ([1]; intraperitoneal dose 5 mg/kg)	Dose of calcium chloride causing arrythmia in animals under experiment ([1]; intraperitoneal dose 15 mg/kg)	Dose of calcium chloride causing death in animals under experiment ([1]; intraperitoneal dose 15 mg/kg)	Relative toxisity to quinidine ([2]; mouse, in vivo, ip, 14400 min)	LD50 at 240 h [3]	Dose of calcium chloride causing arrythmia in animals under experiment ([1]; intraperitoneal dose 25 mg/kg)	Dose of calcium chloride causing death in animals under experiment ([1]; intraperitoneal dose 25 mg/kg)	Relative toxisity to quinidine ([2]; white mice, intraperitoneal, relative to quinidine)
COC(=O)CCN(C(N)=O)N(C)C [I-1, 3-(2,2-Dimethyl-1-carbamoylhydrazino)-methylpropionate]	118,5 mg/kg	149,0 mg/kg	124,4 mg/kg	138,3 mg/kg	13,3	2080 mg/kg	–	–	–
CNC(=O)N(CCC(=O)OC)N(C)C [I-2, 3-(2,2-Dimethyl-1-methylcarbamoylhydrazino)-methylpropionate]	112,0 mg/kg	128,5 mg/kg	124,5 mg/kg	140,6 mg/kg	14,7	2300 mg/kg	–	–	–
COC(=O)CCN(C(=O)Nc1ccccc1)N(C)C [I-3, 3-(2,2-dimethyl-1-phenylcarbamoylhydrazino)-methylpropionate]	86,7 mg/kg	97,0 mg/kg	–	–	8,6	1350 mg/kg	124,7 mg/kg	130,0 mg/kg	–
COC(=O)CCN(C(=O)Nc1ccc(NC(=O)N(CCC(=O)OC)N(C)C)cc1)N(C)C [I-4, 3-(2,2-dimethyl-1-p-/2-dimethylamino-2-methylpropionato-2'-yl-ureido-1-yl/anilinocarbanylhydrazino)-methylpropionate]	86,0 mg/kg	110,0 mg/kg	–	–	51,3	8000 mg/kg	103,7 mg/kg	115,0 mg/kg	–
CNC(=S)N(CCC(=O)OC)N(C)C [I-5, 3-(2,2-dimethyl-1-methylthiocarbamoylhydrazino)methylpropionate]	87,5 mg/kg	100,5 mg/kg	–	–	25,3	3950 mg/kg	127,3 mg/kg	131,4 mg/kg	–
C=CCNC(=S)N(CCC(=O)OC)N(C)C [I-6, 3-(2,2-dimethyl-1-allylthiocarbamoylhydrazino)methylpropionate]	97,9 mg/kg	110,4 mg/kg	–	–	20,5	3200 mg/kg	100,9 mg/kg	113,7 mg/kg	–
COC(=O)CCN(C(=S)Nc1ccccc1)N(C)C [I-7, 3-(2,2-dimethyl-1-phenylthiocarbamoylhydrazino)methylpropionate]	132 mg/kg	135,6 mg/kg	107,5 mg/kg	138,0 mg/kg	13,4	2100 mg/kg	90,0 mg/kg	113,0 mg/kg	–
CCOC(=O)CCN(C(=O)NC)N(C)C [I-8, 3-(2,2-dimethyl-1-methylcarbamoylhydrazino)-ethylpropionate]	99,4 mg/kg	112,0 mg/kg	–	–	11,9	1870 mg/kg	123,2 mg/kg	124,6 mg/kg	–
C=CCNC(=S)N(CCC(=O)OCC)N(C)C [I-9, 3-(2,2-dimethyl-1-allylthiocarbamoylhydrazino)ethylpropionate]	91,8 mg/kg	107 mg/kg	–	–	11,4	1780 mg/kg	104,8 mg/kg	116,5 mg/kg	–
CCOC(=O)CCN(C(=S)Nc1ccccc1)N(C)C [I-10, 3-(2,2-dimethyl-1-phenylthiocarbamoylhydrazino)ethylpropionate]	102,0 mg/kg	108,8 mg/kg	115,8 mg/kg	125,7 mg/kg	11,5	1800 mg/kg	–	–	–
COC(=O)C(C)CN(C(N)=O)N(C)C (centres unmarked) [I-11, 3-(2,2-dimethyl-1-carbamoylhydrazino)-2-methyl-methylpropionate]	100,3 mg/kg	147 mg/kg	130,7 mg/kg	136,3 mg/kg	11,8	1850 mg/kg	–	–	–
CNC(=O)N(CC(C)C(=O)OC)N(C)C (centres unmarked) [I-12, 3-(2,2-dimethyl-1-methylcarbamoylhydrazino)-2-methyl-methylpropionate]	106,0 mg/kg	110,0 mg/kg	128,3 mg/kg	130,5 mg/kg	8,1	1270 mg/kg	–	–	–
C=CCNC(=S)N(CC(C)C(=O)OC)N(C)C (centres unmarked) [I-13]	117,3 mg/kg	136,5 mg/kg	126,0 mg/kg	138,0 mg/kg	7,8	1230 mg/kg	–	–	–
COC(=O)C(C)CN(C(=S)Nc1ccccc1)N(C)C (centres unmarked) [I-14]	96,4 mg/kg	114,1 mg/kg	85 mg/kg	101,0 mg/kg	12,5	1960 mg/kg	–	–	–
CNC(=O)N(CCC(N)=O)N(C)C [I-15, 3-(2,2-dimethyl-1-methylcarbamoylhydrazino)-propionamide]	97,8 mg/kg	109 mg/kg	100,7 mg/kg	108,5 mg/kg	23	3600 mg/kg	–	–	–
CN(C)N(CCC(N)=O)C(=O)Nc1ccccc1 [I-16, 3-(2,2-dimethylamino-1-phenylcarbamoylhydrazino)propionamide]	92,0 mg/kg	115,3 mg/kg	102,5 mg/kg	125,0 mg/kg	–	925 mg/kg	–	–	5,9
CNC(=S)N(CCC(N)=O)N(C)C [I-17]	87,5 mg/kg	138 mg/kg	102,0 mg/kg	115 mg/kg	18,3	2850 mg/kg	–	–	–
